In PubChem BioAssay (NCI):
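Five concentrations, 48 hours, 96-well plates. GI50: concentration for 50% inhibition of growth. TGI marks complete inhibition of growth.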

Key:
Experiment in all cases: growth of human tumour cells (NCI), 48 h
[1] = test system: 786-0 renal
[2] = test system: CAKI-1 renal
[3] = test system: IGROV1 ovarian
[4] = test system: M14 melanoma
[5] = test system: PC-3 prostate
[6] = test system: RXF 393 renal
[7] = test system: SNB-19 CNS
[8] = test system: TK-10 renal
[9] = test system: UACC-257 melanoma
[10] = test system: SK-MEL-28 melanoma

Row | SMILES | TGI [1] [µM] | TGI [2] [µM] | TGI [3] [µM] | TGI [4] [µM] | TGI [5] [µM] | TGI [6] [µM] | TGI [7] [µM] | TGI [8] [µM] | TGI [9] [µM] | GI50 [2] [µM] | GI50 [3] [µM] | GI50 [4] [µM] | GI50 [5] [µM] | GI50 [6] [µM] | GI50 [10] [µM] | TGI [10] [µM] | GI50 [7] [µM] | GI50 [8] [µM] | GI50 [9] [µM]
1 | CCOC(=O)C1C(=O)C=C(c2cc(C)ccc2O)CC1c1cccc(Br)c1 (stereo not given) | 39.8 | 80.5 | 39.5 | 37 | 40.4 | 33.4 | 32.5 | 42.1 | 38 | – | – | – | – | – | – | – | – | – | –
2 | Nc1cc(N)c2nc(-c3ccccc3)c(Sc3ccc(F)cc3)nc2c1 | – | 36.6 | > 100 | 30.8 | > 100 | 29.3 | 41.7 | 42.6 | – | 18.1 | 25 | 15.9 | 29.4 | 13.3 | 23.4 | 53.4 | 20 | 17.4 | –
3 | O=C1CSC(c2ccc(Cl)cc2)N1c1ccc(-n2c(-c3ccccc3)nc3ccccc3c2=O)cc1 (stereo not given) | > 100 | > 100 | > 100 | > 100 | > 100 | – | > 100 | > 100 | > 100 | – | – | – | – | – | – | > 100 | – | – | –
4 | CC1=C2CC3=C(C)C(=O)O[C@H]3C[C@@H](C)[C@@H]2CC1 | > 100 | > 100 | > 100 | > 100 | > 100 | – | > 100 | > 100 | > 100 | – | – | – | – | – | – | > 100 | – | – | –
5 | COc1cc(NS(C)(=O)=O)ccc1N1Cc2cnc3ccc4[nH]ccc1c4c23 | > 100 | > 100 | > 100 | > 100 | > 100 | – | > 100 | > 100 | > 100 | – | – | – | – | – | – | > 100 | – | – | –
6 | COc1cc(C2c3cc4c(c(O)c3C(=O)C3CCC(=O)N32)OCO4)cc(OC)c1OC (stereo not given) | > 100 | > 100 | > 100 | > 100 | > 100 | – | > 100 | > 100 | > 100 | – | – | – | – | – | – | > 100 | – | – | –
7 | N#C/C(=C/NC(=S)Nc1ccc(S(N)(=O)=O)cc1)C(N)=O | > 100 | > 100 | > 100 | > 100 | > 100 | > 100 | – | > 100 | > 100 | – | – | – | – | – | – | > 100 | – | – | –
8 | COc1cc(/C=C/C(=O)C(C)(C)C)cc(OC)c1OC | > 100 | > 100 | – | > 100 | – | 79.1 | > 100 | > 100 | > 100 | – | – | – | – | – | – | > 100 | – | – | –
9 | O=C(c1ccccc1)c1cc(-c2ccccc2)c(-c2ccccc2)[nH]c(=O)c1=O | > 100 | > 100 | > 100 | > 100 | > 100 | – | > 100 | > 100 | > 100 | – | – | – | – | – | – | > 100 | – | – | –
10 | COc1cc2c(oc(=O)c3c4oc([Si](C)(C)C)cc4cc(OC)c23)c2cccc(O)c12 | > 100 | > 100 | > 100 | > 100 | – | > 100 | > 100 | > 100 | > 100 | – | – | – | – | – | – | > 100 | – | – | –
11 | CC(=O)NC(Cc1ccccc1)C(=S)N1CCCC1 (stereo not given) | > 100 | > 100 | > 100 | > 100 | – | > 100 | > 100 | > 100 | > 100 | – | – | – | – | – | – | > 100 | – | – | –
12 | O=C(CCc1nnc2s/c(=C\c3ccc(Cl)cc3Cl)c(=O)n12)Nc1cc(Cl)c(Cl)cc1Cl | – | > 100 | > 100 | > 100 | – | – | – | > 100 | > 100 | > 100 | > 100 | > 100 | – | – | > 100 | > 100 | – | – | > 100
13 | COc1cccc2c(NNc3ccc(Cl)cc3)c3ccc([N+](=O)[O-])cc3nc12 | 21.2 | 15.2 | – | 41.6 | 26.1 | 48 | 33.2 | 25.8 | 55.2 | – | – | – | – | – | – | > 100 | – | – | –
14 | Cc1ccc(CCNC(=S)SCC(NC(=O)CCC(N)C(=O)O)C(=O)NCC(=O)O)cc1 (stereo not given) | 1.6 | 3.44 | 4.77 | 2.56 | – | 2.32 | 4.98 | 9.95 | 4.47 | – | – | – | – | – | – | 7.63 | – | – | –
15 | COc1nc(NC2OCC(OC(C)=O)C(OC(C)=O)C2OC(C)=O)c(N=C(C)C(C)=O)c(=O)n1C (stereo not given) | – | > 100 | > 100 | > 100 | – | > 100 | > 100 | > 100 | > 100 | – | – | – | – | – | – | > 100 | – | – | –
16 | COC(=O)c1ccc2[nH]c3c(c2c1)CC(=O)Nc1ccccc1-3 | > 100 | > 100 | > 100 | > 100 | > 100 | – | > 100 | > 100 | > 100 | – | – | – | – | – | – | > 100 | – | – | –
17 | Cc1c2cccc-2c(N(C)C)cc2c1[nH]c1ccccc12 | 12 | 32.7 | 4.9 | 18.9 | 5.33 | – | 22.1 | 13.2 | 26.4 | – | – | – | – | – | – | 6.84 | – | – | –
18 | COC[C@@H](N=Cc1ccc(OC)cc1)C(C)C | > 100 | > 100 | > 100 | > 100 | > 100 | > 100 | – | > 100 | > 100 | – | – | – | – | – | – | > 100 | – | – | –
19 | O=C(N/N=C/c1cc(-c2ccccc2Cl)c(-c2ccccc2Cl)o1)c1ccncc1 | > 100 | > 100 | > 100 | > 100 | – | > 100 | > 100 | > 100 | > 100 | – | – | – | – | – | – | > 100 | – | – | –
20 | O=c1[nH]c2cccccc-2c1-c1nc2ccccc2[nH]1 | 41 | > 100 | > 100 | > 100 | – | 45.6 | 88 | > 100 | > 100 | – | – | – | – | – | – | 70.5 | – | – | –
21 | CCC(c1ccc(N(C)C)cc1)C1NC(=S)NC1=O (stereo not given) | > 100 | > 100 | > 100 | > 100 | – | > 100 | > 100 | > 100 | > 100 | – | – | – | – | – | – | > 100 | – | – | –
22 | COc1ccccc1C1C(Cl)C(=O)N1NC(=O)Cc1ccccc1 (stereo not given) | > 100 | > 100 | > 100 | > 100 | – | > 100 | > 100 | > 100 | > 100 | – | – | – | – | – | – | > 100 | – | – | –
